From patent US4897426A, “Method for blocking calcium channels” (New York University, priority 1989, dated 1990)
Read-outs that look alike come from different tables or passages of the source.

Legend:
[1] = tested on: bovine platelets; conditions: cited from earlier work
[2] = tested on: low-threshold calcium channels (LTCC); test: Intracellular recording of low-threshold calcium rebound spike in inferior olivary cells of brain slices (LTCC blockage); format: cell-based, guinea pig
[3] = tested on: high-threshold calcium conductance (HTCC); conditions: 10^-4 M butanol; sodium channel blocked by tetrodotoxin
[4] = in vivo; cited from earlier work
[5] = tested on: rat brain synaptic membrane vesicles; conditions: 10^-1 M; cited from earlier work
[6] = tested on: synaptosomes isolated from rat brains; conditions: ethanol 2.5×10^-2 -1.5×10^-1 M; cited from earlier work
[7] = read-out: Blood level; one or two drinks of an alcohol-containing beverage; cited from earlier work
[8] = tested on: tremor; test: Harmaline-induced tremor, electromyogram of left platysma muscle; format: in vivo, Sprague-Dawley rats
Experimental: In order to analyze the effects of LTCC-blocking agents in vivo, octanol was administered to rats. Alcohols were diluted with physiological saline and sonicated to ensure mixing to create a concentration of alcohol around the neurons equivalent to 10^-6 M (at most). The alcohol was administered intraperitoneally at a concentration of to 10 mM. […] (Harmaline is available from Sigma Chemical Co., St. Louis, M.) The thus-induced tremor has a periodicity similar to physiological or enhanced physiological tremor.
Therefore, study of I.O. cells of mammals in which tremor has been induced with harmaline provides an excellent in vivo model for studying tremor response in mammals.
Tremor can be measured by electromyogram conducted according to Buchthal, F., et al., Acta Physio. Scand. 39: 83-104, 1957, incorporated by reference.
The electric activity in the left platysma muscle of 278 to 300 g Sprague-Dawley rats (from Taconic Farms, Germantown, N.Y.) was recorded differentially using two teflon-coated stranded silver wires (2 mm of wire exposed) placed in the belly of the muscle. The electromyogram (emg) was recorded throughout the experiment and the data were analyzed at the following times: (1) before administration of any drugs; (2) after intraperitoneal injection of 15 mg/kg harmaline; and (3) after subsequent intraperitoneal injection of 2 cc of 10 mM 1-octanol (99% octanol sonicated in physiological saline) given to create a concentration of 9.3 micrograms/g of rat body weight or 7×10^-5 M in the vicinity of the neuronal cells (if all the alcohol was to be absorbed, and none metabolized). The emg was smoothed and differentiated (to further decrease the background noise) using a Nicolet Explorer Model 4060 digital oscilloscope (from Nicolet Instrument Corp., Madison, Wis.). This instrument was also used to obtain autocorrelograms of 800-ms sections of the emg's. Autocorrelograms were obtained by superimposing 800-ms sections of the emg signals. The emerging patterns (if any) can be used to determine frequency and amplitude characteristics of the emg that may not be readily discernible from the naked emg signal.

[9] = tested on: tremor; conditions: cited from earlier work
[10] = Solubility in aqueous media; format: physicochemical; conditions: relative to most effective concentration for blocking LTCC
[11] = tested on: LTCC; test: Voltage clamp study of LTCC in I.O. neurons; format: cell-based, guinea pig; conditions: octanol 10^-6 M; depolarization steps of 5 mV from holding potential -80 mV
From the text: Adult Hartley guinea pigs (400-600 g) from Camm Research Institute, Wayne, N.J. were decapitated, after ether anesthesia, using a small animal guillotine. Immediately thereafter, two longitudinal sections were made along the lateral edge of the squamous portion of the occipital bone. The resulting bone slab was cut transversely, and pulled caudalward to expose the cerebellum and brain stem. […] It was then transected longitudinally in a parasagittal plane and fixed to a Vibratome Model G plate (available from Ted Pella, Inc., Tustin, Calif.) in order to obtain thin longitudinal sections. From a single brain stem, six 300-micron slices could be obtained. Following sectioning, the slices were incubated in Ringer's solution for approximately one hour. The bathing medium was kept at room temperature and a mixture of 95% O2 and 5% CO2 was bubbled into the bath during this period. Brain stem slices were removed from the incubation bath after one hour but could be kept in good condition in the bath for periods of time up to 24 hours. […]
The results presented in this Example were recorded in I.O. neurons from different parts of the nucleus. […] In these experiments, the ionic current across the membrane was measured after a voltage clamp pulse was applied across the membrane. […]

[12] = tested on: squid axons; conditions: octanol 10^-4 M; cited from earlier work
[13] = complete blockage of LTCC, for hexanol through decanol nominal, 10^-6 M at most (not fully soluble)
[14] = harmaline 15 mg/kg i.p., no alcohol
[15] = 2 cc of 10 mM 1-octanol i.p. after harmaline 15 mg/kg i.p.

CCCCO [butanol]
Inhibition of calcium mobilization ([1]; 5×10^-2 M): inhibitors of calcium mobilization | Inhibition of the LTCC or rebound spike [2]: inhibition of the LTCC or rebound spike | Preferred highest molar concentration / operative range for substantial and total blockage of LTCC: To About [2]: ~10^-6 | Effect on the HTCC [3]: absence of any effect on the HTCC

CCCCCCCCCCO [decanol]
Preferred highest molar concentration / operative range for substantial and total blockage of LTCC: From About [2, 13]: ~10^-6 M

CCO [ethanol]
Intoxicating and addictive properties [4]: well-known | Inhibition of calcium influxes [5]: inhibited calcium influxes | Inhibition of voltage-dependent calcium uptake [6]: inhibited voltage-dependent calcium uptake | Preferred highest molar concentration / operative range for substantial and total blockage of LTCC: From About [2]: ~10^-3 | Preferred highest molar concentration / operative range for substantial and total blockage of LTCC: To About [2]: ~10^-4 | concentration [7]: ~10000 µM

COc1ccc2c3c([nH]c2c1)C(C)=NCC3 [harmaline, reference compound]
Tremor induction ([8]; harmaline 15 mg/kg i.p.): periods of generalized tremor | Degree of autocorrelation of emg [8, 14]: high degree of autocorrelation | Dominant frequency of tremor [8, 14]: 7.5 Hz | Induction of tremor in mammals (known) [9]: known to induce tremor in mammals

CCCCCCCO [heptanol]
Preferred highest molar concentration / operative range for substantial and total blockage of LTCC: From About [2, 13]: ~10^-6 M

CCCCCCO [hexanol]
Inhibition of calcium mobilization ([1]; 5×10^-3 (unit not given)): inhibitors of calcium mobilization | Preferred highest molar concentration / operative range for substantial and total blockage of LTCC: From About [2, 13]: ~10^-6 M

CCCCCCCCCO [nonanol]
Preferred highest molar concentration / operative range for substantial and total blockage of LTCC: From About [2, 13]: ~10^-6 M

CCCCCCCCO [octanol, 1-octanol]
Solubility in aqueous media [10]: corresponds closely to the most effective concentration for blocking the LTCC | Baseline muscle activity [8, 15]: reduced below control levels | Dominant frequency of emg [8, 15]: 10 Hz | Tremor after harmaline and alcohol [8, 15]: the tremor stopped | Blockage of calcium-dependent rebound potentials (LTCC) ([2]; 10^-6 M octanol in bath, sodium spike blocked with 10^-6 M tetrodotoxin): complete blockage of the calcium-dependent rebound potentials | Blockage of the rebound calcium spike following membrane hyperpolarization ([2]; 10^-6 M octanol, hyperpolarizing square current pulse, 10^-6 M tetrodotoxin): blocked | Preferred highest molar concentration / operative range for substantial and total blockage of LTCC: From About [2, 13]: ~10^-6 M | Blockage of low-threshold calcium ionic current [11]: completely blocked the ionic conductance | Observed intracellular calcium concentration [12]: apparent increase in the observed intracellular calcium concentration

CCCCCO [pentanol]
Preferred highest molar concentration / operative range for substantial and total blockage of LTCC: From About [2, 13]: ~10^-6 M
